Measured values published in US20260176260A1, “DUAL RAF AND TUBULIN INHIBITORS AND METHODS OF USE THEREOF” (Deciphera Pharmaceuticals, LLC, priority 2023, published 2026).
Like-named read-outs stand apart in the source and are kept apart here.

Tests used:
B-Raf kinase = biological target: T1, B-Raf kinase (Homo sapiens, UniProt P15056); test: Biochemical assay for B-Raf (coupled pyruvate kinase/lactate dehydrogenase)
T1 construct: purchased Sigma

HCT-116 cells = test: HCT-116 cell proliferation assay (resazurin); assay type: cell-based
Procedure, shortened: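 HCT-116 cells, 375 per well in McCoy's 5A with 10% FBS, exposed to serially diluted compound in triplicate for 67-72 h at 37 °C. Resazurin added for 4-5 h more; fluorescence (ex 540/em 600 nm) fitted to IC50.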

Porcine Brain Tubulin = biological target: T2, Porcine Brain Tubulin (Sus scrofa, UniProt P02550+P02554); test: Biochemical tubulin polymerization assay
T2 construct: Porcine Brain Tubulin (T240); purchased Cytoskeleton, Inc T240; BK011P; host or cells: porcine brain

C-Raf kinase = biological target: T3, C-Raf kinase (Homo sapiens, UniProt P04049, Y340D/Y341D); test: Biochemical assay for C-Raf (coupled pyruvate kinase/lactate dehydrogenase)
T3 construct: C-Raf residues 306-end; Y340D, Y341D with N-; purchased Sigma

HPAF-II cells = test: HPAF-II cell proliferation assay (resazurin); assay type: cell-based
Procedure, shortened: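 Serial compound dilutions in triplicate with 750 cells/well in complete MEM with 10% FBS, 115 to 120 h at 37° C, 5% CO2. Resazurin then added for 18 to 24 h; fluorescence at ex 540/em 600 nm used to derive IC50.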

MiaPaca-2 cells = test: MiaPaca-2 cell proliferation assay (resazurin); assay type: cell-based
[1] = test system: tubulin polymerization in HCT-116 cells; test: Cellular tubulin polymerization assay (pellet/supernatant a-tubulin, HCT-116 cells); assay type: cell-based
Procedure: HCT-116 cells (catalog #CCL-247) are obtained from the American Type Culture Collect (ATCC, Manassas, VA). Briefly, cells are grown in McCoy's 5A supplemented with 10% characterized fetal bovine serum (Invitrogen, Carlsbad, CA) and 1% Penicillin/Streptomycin/L-Glutamine at 37° C., 5% CO2, and 95% humidity. Cells are expanded until reaching 70-95% confluency at which point they are sub-cultured or harvested for assay use. 450000 cells are added per well in 1500 μL complete growth medium in a tissue culture treated, 12-well plate. Plates are incubated for 18 to 24 h at 37° C., 5% CO2, and 95% humidity. At the end of the incubation, 2000 μL of base culture media is added to each well, followed by a serial dilution of compound. Plates are incubated for an additional 1 h at 37° C., 5% CO2, and 95% humidity. Lysates are generated by the addition of 100 μL Lysis and Microtubule Stabilization Buffer 1 (LMS01, Cytoskeleton Inc, Denver, CO) supplemented with GTP (BST06, Cytoskeleton Inc), ATP (BSA04, Cytoskeleton Inc), and Protease Inhibitor Cocktail Stock (PIC02, Cytoskeleton Inc). Cells are scraped off wells using a rubber cell scraper and collected in a clean 96-well plate. Lysates are centrifuged at 1000×g, 37° C. for 10 min and supernatant fraction is placed into an additional 96-well plate. The remaining pellet fraction is reconstituted in 100 μL LMS01 buffer and sonicated for 10 min. Pellet and Supernatant fractions are probed for a-tubulin via western blot analysis on the Jess System or equivalent (Bio-techne, Minneapolis, MN). Data is analyzed using Prism software (Graphpad, San Diego, CA) to calculate IC50 values.

[2] = Homo sapiens, HCT-116, Table 4, read-out: HCT-116 IC50
[3] = Table 4, read-out: Tubulin Biochem IC50
[4] = Homo sapiens, HPAF-II, Table 4, read-out: HPAF-II IC50
[5] = Table 5, read-out: Tubulin Biochem
[6] = Table 5, HCT-116 cells, read-out: Tubulin Cellular
[7] = Homo sapiens, Table 5, read-out: HCT-116
[8] = Homo sapiens, MIA PaCa-2, Table 5, read-out: MiaPaca-2
[9] = Homo sapiens, Table 5, read-out: HPAF-II

T2 sequence (P02550 whole entry): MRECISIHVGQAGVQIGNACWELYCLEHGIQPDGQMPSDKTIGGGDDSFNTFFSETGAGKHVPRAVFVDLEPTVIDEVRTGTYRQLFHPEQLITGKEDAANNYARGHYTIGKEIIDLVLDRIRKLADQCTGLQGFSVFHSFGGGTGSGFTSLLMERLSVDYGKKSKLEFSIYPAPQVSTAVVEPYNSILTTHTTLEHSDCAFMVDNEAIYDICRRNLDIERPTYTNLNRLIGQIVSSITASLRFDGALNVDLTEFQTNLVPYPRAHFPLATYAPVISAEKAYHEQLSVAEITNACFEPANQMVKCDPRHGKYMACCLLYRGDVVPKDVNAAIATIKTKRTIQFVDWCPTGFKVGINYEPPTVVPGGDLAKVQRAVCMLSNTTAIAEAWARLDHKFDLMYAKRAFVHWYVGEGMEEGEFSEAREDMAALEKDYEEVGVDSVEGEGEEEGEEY
T2 sequence (P02554 whole entry): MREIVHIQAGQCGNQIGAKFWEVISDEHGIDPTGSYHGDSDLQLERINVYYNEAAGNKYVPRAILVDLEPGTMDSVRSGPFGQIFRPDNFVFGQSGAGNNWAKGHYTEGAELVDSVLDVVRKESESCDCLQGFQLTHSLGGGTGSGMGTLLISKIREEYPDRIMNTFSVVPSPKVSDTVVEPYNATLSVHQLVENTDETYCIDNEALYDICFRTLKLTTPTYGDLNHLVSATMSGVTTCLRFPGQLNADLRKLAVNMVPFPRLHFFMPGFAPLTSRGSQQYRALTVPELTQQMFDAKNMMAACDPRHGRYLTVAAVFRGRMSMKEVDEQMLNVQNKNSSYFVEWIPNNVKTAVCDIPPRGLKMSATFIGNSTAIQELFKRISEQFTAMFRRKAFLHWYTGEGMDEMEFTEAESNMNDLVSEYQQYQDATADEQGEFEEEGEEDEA
T1 sequence (P15056 416-766): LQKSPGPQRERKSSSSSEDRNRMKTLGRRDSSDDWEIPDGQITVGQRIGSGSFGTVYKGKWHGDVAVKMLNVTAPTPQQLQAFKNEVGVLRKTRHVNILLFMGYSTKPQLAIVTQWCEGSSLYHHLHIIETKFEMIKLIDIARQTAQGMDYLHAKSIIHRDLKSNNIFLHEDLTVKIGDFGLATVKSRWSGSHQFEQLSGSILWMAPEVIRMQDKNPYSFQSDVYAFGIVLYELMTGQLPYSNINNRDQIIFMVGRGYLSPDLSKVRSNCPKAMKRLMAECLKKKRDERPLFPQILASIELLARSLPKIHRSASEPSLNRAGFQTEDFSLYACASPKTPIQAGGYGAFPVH

Molecule	IC50 (B-Raf kinase; Table 4, read-out: BRAF IC50) [µM]	IC50 (HCT-116 cells; [2]) [µM]	IC50 (Porcine Brain Tubulin; [3]) [µM]	IC50 (C-Raf kinase; Table 4, read-out: CRAF IC50) [µM]	IC50 (HPAF-II cells; [4]) [µM]	IC50 (Porcine Brain Tubulin; [5]) [µM]	IC50 (HCT-116 cells; [7]) [µM]	IC50 (MiaPaca-2 cells; [8]) [µM]	IC50 (HPAF-II cells; [9]) [µM]	further results
Cc1cc(-c2cc(NC(=O)c3ccnc(C(C)(C)F)c3)ccc2C)cc(-c2ccnc(C(N)=O)c2)n1 [reference compound]	< 0.1	1 to 10	> 100	< 0.1	1 to 10	–	–	–	–	–
Belvarafenib [reference compound]	–	–	–	–	–	> 100	–	–	–	IC50 (B-Raf kinase; Table 5, read-out: BRAF): < 0.1 µM; IC50 (HCT-116 cells; Table 5, read-out: HCT-116): 0.5 to 1 µM; IC50 (MiaPaca-2 cells; Table 5, read-out: MiaPaca-2): 1 to 10 µM; IC50 (C-Raf kinase; Table 5, read-out: CRAF): < 0.1 µM; IC50 [1, 6]: 1 to 10 µM; IC50 (HPAF-II cells; Table 5, read-out: HPAF-II): 1 to 10 µM
C[C@@H](NC(=O)c1ncnc(N)c1Cl)c1ncc(C(=O)Nc2cc(C(F)(F)F)c(Cl)cn2)s1 [Tovorafenib, reference compound]	–	–	–	–	–	> 100	1 to 10	1 to 10	1 to 10	IC50 [1, 6]: 1 to 10 µM
CNC(=O)c1cc(-c2cc(-c3cc(NC(=O)c4cnnc(C(F)(F)F)c4)ccc3C)ccn2)ccn1 [reference compound]	< 0.1	1 to 10	> 100	< 0.1	1 to 10	–	–	–	–	IC50 (MiaPaca-2 cells; Homo sapiens, MIA PaCa-2, Table 4, read-out: MiaPaca-2 IC50): 1 to 10 µM
CC(C)(C)c1nc(-c2cccc(NS(=O)(=O)c3c(F)cccc3F)c2F)c(-c2ccnc(N)n2)s1 [Dabrafenib, reference compound]	–	–	–	–	–	> 100	1 to 10	1 to 10	1 to 10	–
CNC(=O)c1cc(-c2cc(-c3cc(NC(=O)c4ccnc(C(C)(C)F)c4)ccc3C)ccn2)ccn1 [reference compound]	< 0.1	0.5 to 1	> 100	< 0.1	1 to 10	–	–	–	–	IC50 ([1]; Table 4, HCT-116 cells, read-out: Tubulin Cellular IC50): 1 to 10 µM
Cc1ccc(NC(=O)c2ccnc(C(F)(F)F)c2)cc1-c1cc(OCCO)nc(N2CCOCC2)c1 [Naporafenib, reference compound]	–	–	–	–	–	> 100	1 to 10	1 to 10	1 to 10	IC50 (B-Raf kinase; Table 5, read-out: BRAF): < 0.1 µM; IC50 (C-Raf kinase; Table 5, read-out: CRAF): < 0.1 µM
